{"source": "PubChem BioAssay (NCI)", "note": "Where “and” joins values, the source holds several entries; their conditions need not be identical. Equal values may be shown once.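 These data come from cells grown in 96-well plates and exposed to compound for 48 hours at five concentrations. Abbreviation: GI50, concentration required for 50% inhibition of growth. The concentration for full growth arrest is given as TGI.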 Calls of active or inactive are those of the source. Rule as the data show it: active = GI50 below about 0.43 µM; inactive = the rest.", "data": [{"test_system": "MDA-MB-468 breast", "experiment": "growth of human tumour cells (NCI), 48 h", "values": [{"smiles": "Nc1c(C(=O)Nc2cccc(Cl)c2)sc2nc3c(cc12)C(=O)CCC3", "GI50": "0.0879 µM", "TGI": "1.3 µM"}, {"smiles": "COC(=O)c1cc2ccc(O)c(O)c2cn1", "GI50": "14.1 µM", "TGI": "27.2 µM"}, {"smiles": "C/C(=C\\C(=O)O[C@H]1[C@@H]2[C@H](C)CC[C@H]2[C@]2(C)O[C@@]1(C1CCCCC1)C[C@H]2OC(=O)CO)c1ccccc1", "GI50": "6.7 µM", "TGI": "13.4 µM"}, {"smiles": "CNC(=O)Oc1cc(C(C)C)ccc1Sc1ccc(C(C)C)cc1OC(=O)NC", "GI50": "2.34 µM", "TGI": "9.89 µM"}, {"smiles": "CCOc1ccc(N(C)c2ccc(/C=C/C3=[N+](C)c4ccccc4C3(C)C)cc2)cc1", "GI50": "0.161 µM", "TGI": "1.03 µM"}, {"smiles": "COC(=O)[C@@H](C)C[C@H](Cc1ccccc1)NC(=O)c1nc([C@@H](C[C@H](C(C)C)N(C)C(=O)[C@@H](NC(=O)[C@H]2C[C@H](O)CCN2C)C(C)C)OC(C)=O)sc1C(C)C", "GI50": "< 0.00111 µM"}, {"smiles": "CC(=O)/C(=C\\c1ccc(Cl)cc1)c1ccccc1", "GI50": "0.0361 µM", "TGI": "> 100 µM"}, {"smiles": "COc1ccc(-c2nc3sc(-c4cc(OC)c(OC)c(OC)c4)nn3c2/C=C2/C(=O)Nc3ccc(F)cc32)cc1", "GI50": "2.53 µM", "TGI": "7.88 µM"}, {"smiles": "CC(C)=CC[C@@H]1CC2(CC=C(C)C)C(=O)C(OC3(C(=O)c4ccccc4)C(=O)C4(CC=C(C)C)C[C@@H](CC=C(C)C)C(C)(C)C(CC=C(C)C)(C4=O)C3=O)(C(=O)c3ccccc3)C(=O)C(CC=C(C)C)(C2=O)C1(C)C", "note": "(stereo partly drawn)", "GI50": "1.23 µM", "TGI": "3.28 µM"}, {"smiles": "O=c1[nH]c2ccccc2n1C1CCNCC1", "GI50": "> 100 µM", "TGI": "> 100 µM"}, {"smiles": "O=S(=O)(NCCCNc1cc(-c2cn(-c3ccccc3)nc2-c2cccc(O)c2)ccn1)c1ccc(C(F)(F)F)cc1", "GI50": "1.8 µM", "TGI": "5.55 µM"}, {"smiles": "Sc1cccc2cccnc12", "GI50": "2.71 µM", "TGI": "15.6 µM"}, {"smiles": "C[C@@H]1CN2[C@H]3[C@@H]1CC[C@]31CCC(=O)O[C@]1(C)[C@H]1CC[C@H]3CCC=C3[C@@H]12", "GI50": "> 30 µM", "TGI": "> 30 µM"}, {"smiles": "CC(C)(C)CC(C)(C)c1ccc(OCCO)cc1", "outcome": "inactive"}, {"smiles": "CCOC(=O)c1noc2c1CCc1c-2cn(Cc2ccc(OC)cc2)c1-c1cc(OC)c(OC)c(OC)c1", "GI50": "5.62 µM", "TGI": "> 100 µM"}, {"smiles": "CCN1CCN(CCC(=O)Nc2cccc(-n3cc(-c4ccncc4)c(-c4ccc(Cl)c(OC)c4)n3)c2)CC1", "GI50": "0.325 µM", "TGI": "1.41 µM"}, {"smiles": "Cn1cc(-c2ccc3nc(-c4ccc(CC(=O)Nc5cc(C(C)(C)C)no5)cc4)cnc3c2)cn1", "GI50": "0.0702 µM", "TGI": "> 3 µM"}, {"smiles": "CC1(C)N=C(N)N=C(N)N1c1ccc(OCCCNC(=O)Nc2ccc(S(=O)(=O)F)cc2)c(Cl)c1", "GI50": "0.818 µM", "TGI": "29.1 µM"}, {"smiles": "CCN(Cc1ccc(OC)cc1)c1ccc(CO)c(Cl)c1", "GI50": "0.0167 µM", "TGI": "0.0413 µM"}, {"smiles": "COc1cc(/C=C/C(=O)c2cccc(-n3cc(-c4ccccc4)[nH]c3=O)c2)cc(OC)c1OC", "GI50": "1.8 µM", "TGI": "3.54 µM"}, {"smiles": "Cn1ncnc1[C@@H]1c2n[nH]c(=O)c3cc(F)cc(c23)N[C@H]1c1ccc(F)cc1", "GI50": "> 100 µM", "TGI": "> 100 µM"}, {"smiles": "ClC1=C(Cl)C(Cl)(C2(Cl)C(Cl)=C(Cl)C(Cl)=C2Cl)C(Cl)=C1Cl", "GI50": "0.334 µM", "TGI": "1.42 µM"}, {"smiles": "COc1cccc2c1nc(C(F)F)n2-c1nc(-c2ccc(NS(=O)(=O)CCN(C)C)cc2)nc(N2CCOCC2)n1", "GI50": "0.0711 µM", "TGI": "0.492 µM"}, {"smiles": "CC(Nc1ncnc2ccc(-c3cnc(N)nc3)cc12)c1ccccc1", "note": "(stereo not drawn)", "GI50": "1.17 µM", "TGI": "4.03 µM"}, {"smiles": "N#CC1=C(N)Oc2c(sc3c(Br)cccc23)C1c1ccc([N+](=O)[O-])cc1", "note": "(stereo not drawn)", "GI50": "0.318 µM", "TGI": "7.27 µM"}, {"smiles": "Cc1[nH]nc2ccc(-c3nc4cnc(N5CCN(C)CC5)cn4c3Nc3ccc(F)cc3Br)cc12", "GI50": "1.57 µM", "TGI": "3.31 µM"}, {"smiles": "O=C(CCCc1ccc(N(CCCl)CCCl)cc1)NCc1ccccc1", "GI50": "2.75 µM", "TGI": "10.3 µM"}, {"smiles": "O=C1NC(=O)C(c2c[nH]c3ccccc23)=C1c1c[nH]c2ccccc12", "GI50": "8.28 µM", "TGI": "> 25 µM"}, {"smiles": "CCCCn1c(=O)[nH]c(N)c([C@@H]2c3c([nH]c(=O)n(CCCC)c3=O)Oc3ccc4ccccc4c32)c1=O", "GI50": "13.4 µM", "TGI": "33.4 µM"}, {"smiles": "CC(C)=CCc1cc2c(cc1O)C1=C(C(=O)C3=C(NCCS3(=O)=O)C1=O)C(C=C(C)C)O2", "note": "(stereo not drawn)", "GI50": "3.27 µM", "TGI": "12.8 µM"}, {"smiles": "CCC(=C(c1ccc(OCCN2CCCCC2)cc1)c1ccc(OCCN2CCCCC2)cc1)c1ccc(Cl)cc1", "GI50": "3.33 µM", "TGI": "> 16.7 µM"}, {"smiles": "O=C(NCc1cn(Cc2cccc(Oc3ccccc3)c2)nn1)c1cccnc1Nc1ccc(F)cc1", "GI50": "5.17 µM", "TGI": "> 100 µM"}, {"smiles": "O=C(N/N=C/c1ccc(Cl)cc1)c1ccc(NC(=O)c2ccccn2)cc1", "GI50": "23.2 µM", "TGI": "95.2 µM"}, {"smiles": "N#CCCNc1nonc1-c1nc2ccccc2n1CC(=O)c1ccc(N)cc1", "GI50": "0.0168 µM", "TGI": "0.0683 µM"}, {"smiles": "COC(=O)N[C@H]1CCc2cc(OC)c(OC)c(OC)c2-c2ccc(SC)c(=O)cc21", "GI50": "< 0.01 µM", "TGI": "> 100 µM"}, {"smiles": "CC1=C(CCCOC(=O)[C@H](N)CC(C)C)C2=C(C)C3(CC3)[C@@](C)(O)C(=O)C2=C1", "GI50": "1.37 µM", "TGI": "4.6 µM"}, {"smiles": "O=C(/C=C\\c1ccc(O)c(O)c1)c1ccccc1O", "GI50": "2.98 µM", "TGI": "16.7 µM"}, {"smiles": "Cc1ccc(NC(=O)c2ccc(CN3CCN(C)CC3)cc2)cc1Nc1nc(-c2cccnc2)cs1", "GI50": "2.98 µM and 2.62 µM", "TGI": "15.3 µM and > 10 µM"}, {"smiles": "CN1C(=O)C(c2c[nH]c3ccccc23)=C(c2c[nH]c3ccccc23)C1=O", "GI50": "5.12 µM", "TGI": "19 µM"}, {"smiles": "Cn1cc(C2=C(c3ccsc3)C(=O)NC2=O)c2ccccc21", "GI50": "> 22.3 µM", "TGI": "> 25 µM"}, {"smiles": "O=C1C=C(Nc2ccccc2)c2ccccc2C1=O", "GI50": "2.04 µM", "TGI": "5.94 µM"}, {"smiles": "COC(=O)c1c2c(c(C)[n+]([O-])c1C)C(=O)C(NCc1ccc(OC)cc1)=CC2=O", "GI50": "1.27 µM", "TGI": "3.06 µM"}, {"smiles": "COc1ccc(C2=NN(C(N)=S)C(c3ccc4c(c3)OCO4)C2)cc1", "note": "(stereo not drawn)", "GI50": "2.68 µM", "TGI": "11 µM"}, {"smiles": "COc1ccc2c(c1)[C@@H](NC(C)=O)CCc1cc(OC)c(OC)c(OC)c1-2", "GI50": "0.0698 µM", "TGI": "> 100 µM"}, {"smiles": "O=[N+]([O-])c1ccc(C2=NCCO2)cc1", "GI50": "> 100 µM", "TGI": "> 100 µM"}, {"smiles": "C=CCc1cccc(C=O)c1O", "GI50": "> 100 µM", "TGI": "> 100 µM"}, {"smiles": "Nc1ccc(/C=C/c2ccc3ncccc3c2)cc1", "GI50": "> 100 µM", "TGI": "> 100 µM"}, {"smiles": "CC(C)=CCC/C(C)=C/CC/C(C)=C/CSC[C@H](NC(=O)CCCCCN1CCN(C)CC1)C(=O)NC1CCCCCC1", "GI50": "2.06 µM", "TGI": "4.89 µM"}, {"smiles": "CN1CCN(Cc2ccc(NC(=O)c3cncc(C#Cc4cnc(N)c5ncccc45)c3)cc2C(F)(F)F)CC1", "GI50": "0.368 µM", "TGI": "1.68 µM"}, {"smiles": "COc1cc2cc(NCc3cccc(Cl)c3)nc(C)c2cc1OC", "GI50": "4.06 µM", "TGI": "24.3 µM"}]}]}
